Assay results reported in patent US8796219B2, “Target-activated cell/tissue-penetrating peptide for delivery of impermeable compounds and use thereof” (Nano Intelligent Biomedical Engineering Corporation Co. Ltd, priority 2009, dated 2014).
Where no end group is shown, it is not given here.

Columns and labels:
normal cell line (ATCC) = assay: Cell-penetrating ability in normal cell line (FACS and confocal laser scanning microscopy of FITC fluorescence); type: cell-based; settings: FITC label
Protocol: (§1) In order to examine the cell-penetrating ability of the target-activated cell/tissue-penetrating peptide prepared in Example 1, the C-terminal region of the prepared peptide was labeled with the fluorescence marker FITC, and the fluorescence-labeled peptide was inoculated into each of a normal cell line (ATCC) and a tumor cell line (CT-26, KCLB (Korea cell line bank) 80009).
(§2) 1 hour after the inoculation, the fluorescence intensities of the cell lines were measured using FACS, and the results of the measurement are shown in FIG. 2. […] In FIG. 2, “(a)” indicates the fluorescence intensity of the normal cell line, and “(b)” indicates the fluorescence intensity of the tumor cell line.
(§3) Also, whether the peptide penetrated into the cells was observed by a confocal laser scanning microscope. […] In FIG. 3, “(a)” indicates the cell penetration of the peptide in the tumor cell line group, and “(b)” indicates the cell penetration of the peptide in the normal cell line group.
(§4) The target-activated cell/tissue-penetrating peptide-anticancer protein conjugate prepared in Example 2 above was inoculated into each of a normal cell line (ATCC) and a tumor cell line (CT-26, KCLB (Korea cell line bank) 80009). 1 hour after the inoculation, the penetration of the peptide-gelonin conjugate into the cells was observed by a confocal laser scanning microscope (FIG. 4).

tumor cell line (CT-26) = assay: Cell-penetrating ability in tumor cell line (FACS and confocal laser scanning microscopy of FITC fluorescence); type: cell-based, mouse
Protocol: as §1, §2, §3, §4

Substance: NH2-EEEEEEEPLGLAG-VSRRRRRRGGRRRR-C-COONH2 (H-EEEEEEEPLGLAGVSRRRRRRGGRRRRC-NH2) [masking domain (EEEEEEE), MMP-cleavable spacer (PLGLAG) and LMWP as protein transduction domain]
- fluorescence intensity of the normal cells (FACS) (normal cell line (ATCC)): the same as that before application of the penetrating peptide

Substance: fluorescence-labeled peptide: peptide of Example 1 with the C-terminal region labeled with the fluorescence marker FITC (H-EEEEEEEPLGLAGVSRRRRRRGGRRRRC; also: FITC label on C-terminal region)
- fluorescence intensity of the tumor cells (FACS) (tumor cell line (CT-26); CT-26, 1 hour after inoculation, FITC label): increase
- penetration into the cells observed by confocal laser scanning microscope, tumor cell line (tumor cell line (CT-26); CT-26, FITC label, nuclei stained with Hoechst 33342): observed
- penetration into the cells observed by confocal laser scanning microscope, normal cell line (normal cell line (ATCC); nuclei stained with Hoechst 33342): not observed
